Results as given in patent publication US20260345624A1, “TREATMENT OF PROSTATE CANCER BY PROMOTING PDE4D7” (KONINKLIJKE PHILIPS N.V., priority 2022, published 2026).
“Also recorded” adds a separate entry of the source.

How the values were obtained:
LNCaP WT cells = assay: xCELLigence real-time proliferation of WT LNCaP cells; type: cell-based; settings: for WT LNCaP growth, strongest effect: enzalutamide 1 μM and above; for WT LNCaP cell proliferation: enzalutamide 0.1-30 μM, all concentrations tested
Description: (§1) xCELLigence Real-Time Cell Analysis (RTCA)
(§2) Real-time cell growth was analysed using the xCELLigence RTCA system (Agilent), which measures real-time cell adhesion across gold microelectrode biosensors on 96 well electronic plates (E-plates) within a 37 °C incubator with 5% CO2. Cellular adhesion influences electrical impedance which is converted into the cell index (CI) via RTCA software. Initial background measurements were recorded with 100 μL RPMI 1640 medium, followed by addition of 100 μL LNCaP cell suspension (10,000 cells/wells) for measurement of CI over time. Approximately 24 h after seeding, cells were treated with specified concentrations of drugs. Negative controls containing either 0.1% DMSO or untreated cells were also included. CI was transformed to normalised CI via the RTCA software to timepoint of treatment.

P1-TET4D7 LNCaP cells = assay: Real-time growth of P1 LNCaP cells with Tet-On inducible PDE4D7; type: cell-based; settings: enzalutamide 10 μM, Tet-On doxycycline-induced PDE4D7
Description: as §1, §2
PDE4D7 (GenBank ID AF536976) sequence was first subcloned into lentivirus vectors with CMV (LVR-1001-pLV-CMV-PGK-Puro) and then into Tet-On inducible vector pLV-tet-on-3G-P2A-Puro, LNCaP-shRNA P1 cells were maintained in RPMI1640 medium supplemented with 10% (v/v) foetal bovine serum, 1% (v/v) L-Glutamine and 1% (v/v) penicillin/streptomycin, and infected with Tet-On inducible lentivirus at MOI=5-10 in the presence of 8 μg/ml polybrene. […]

[1] = system: PDE4D7-knockdown LNCaP P1 cells; assay: xCELLigence real-time proliferation of PDE4D7-knockdown P1 LNCaP cells; type: cell-based
Text: Stable shRNA-mediated lentiviral transduced LNCaP cell lines were generated by AMSBIO (Table 1). Briefly, shRNA-PDE4D7 was cloned into a lentivector and delivered into LNCaP clone FGC cells (ATCC) via lentivirus (MOI=10). Cells were maintained in puromycin-supplemented medium prior to selection of stably transduced cells. A stable shRNA-PDE4D7 LNCaP cell line was then re-transduced with lentivirus delivering PDE4D7 to generate a re-introduced cell line. Scrambled-shRNA was used as a control. All cells were cultured in RPMI 1640 medium (Gibco D), supplemented with 10% (v/v) foetal bovine serum, 1% (v/v) L-Glutamine and 1% (v/v) penicillin/streptomycin, and stored within a 37 °C incubator with 5% CO2.
as §1, §2

cAMP production = settings: Miller et al., 2013; cited from earlier work
PCa = settings: He et al., 2019; cited from earlier work

Row | SMILES | WT LNCaP growth, strongest effect (LNCaP WT cells) | WT LNCaP growth, strongest effect (LNCaP WT cells; listed as Enzalutamide) | WT LNCaP cell proliferation (LNCaP WT cells) | WT LNCaP cell proliferation (LNCaP WT cells; listed as Enzalutamide) | sensitivity to enzalutamide upon PDE4D7 re-expression (P1-TET4D7 LNCaP cells) | P1 LNCaP growth vs DMSO control ([1]; enzalutamide, higher concentrations up to 30 μM) | P1 LNCaP proliferation ([1]; enzalutamide, increasing doses 0-30 μM) | resistance to enzalutamide upon PDE4D7 knockdown ([1]; overall conclusion, 0-30 μM) | cAMP production (cAMP production) | growth of WT cells (LNCaP WT cells; metformin, all concentrations (0-25 μM)) | growth inhibition independent of PDE4D7 expression, WT (LNCaP WT cells; summary statement, WT vs P1) | growth inhibition of P1 cells ([1]; metformin, only at highest concentrations tested (0-25 μM)) | growth inhibition independent of PDE4D7 expression, P1 ([1]; summary statement, WT vs P1) | overall survival/time to recurrence in PCa (PCa) | treatment/reduction of PCa tumours (PCa)
1 | CNC(=O)c1ccc(N2C(=S)N(c3ccc(C#N)c(C(F)(F)F)c3)C(=O)C2(C)C)cc1F [enzalutamide] | least growth | most profound effects | significant decrease in WT LNCaP cell proliferation | significant decrease in WT LNCaP cell proliferation at all concentrations tested | restored sensitivity to enzalutamide; also recorded: rescued upon PDE4D7 re-expression | significantly enhanced growth; also recorded: increased growth at higher concentrations | minimal reductions in cell proliferation | confers resistance to anti-androgens such as enzalutamide |  |  |  |  |  |  | 
2 | CN(C)C(=N)N=C(N)N [metformin, Metformin] |  |  |  |  |  |  |  |  | decrease CAMP production | significantly reducing growth of WT cells at all concentrations | reduce tumor growth independent of PDE4D7 expression levels; also recorded: inhibit LNCaP cell growth irrespective of PDE4D7 expression status | significant inhibition was only observed in P1 cells at highest concentrations tested | reduce tumor growth independent of PDE4D7 expression levels; also recorded: inhibit LNCaP cell growth irrespective of PDE4D7 expression status | enhance overall survival/time to recurrence | no evidence of it treating/reducing the PCa tumours itself
